# Source: patent US10266537B2, “3-acetylenyl-pyrazole-pyrimidine derivative, and preparation method therefor and uses thereof” (Si Chuan University, priority 2015, dated 2019)
# Read-outs that look alike come from different tables or passages of the source.
# Key:
# MDA-MB-231 = test: Cell proliferation inhibition assay (MTT); assay type: cell-based, human; conditions: Homo sapiens, read-out: Proliferative inhibitory activity MDA-MB-231 (IC50 class)
# MDA-MB-435 = test: Cell proliferation inhibition assay (MTT); assay type: cell-based, human; conditions: Homo sapiens, read-out: Proliferative inhibitory activity MDA-MB-435 (IC50 class)
# Procedure: The remaining cell lines were cultured in DMEM complete medium containing 10% fetal bovine serum (MV4-11 cells 20%), 100 U/ml penicillin, 100 μg/mL streptomycin at 5% CO2, and 37° C.
# The cells were seeded in 96-well plates with 200 μL of cell suspension per well and incubated overnight in a cell culture medium with a cell concentration of 1˜2×10^4 cells/mL. The next day, the supernatant was discarded (the suspension cell was centrifuged before it) and the cells were treated with gradient concentrations of the test compound, respectively. At the same time, the drug-free negative control group and the equal volume of solvent control group, DMSO concentration of 0.1%, each dose group set up three wells, 37° C., 5% CO2 conditions. After 72 hours, add 20 μL of MTT reagent at a concentration of 5 mg/mL per well. After incubation for 2-4 h, the supernatant was discarded and 150 μL of DMSO was added to each well. […] Determine the absorbance (A) value (λ=570 nm, A value is proportional to the number of living cells), whichever is the average. […] The experiment was repeated at least 3 times. Experimental data were expressed as mean, data statistics using t test, P<0.05 for the difference was statistically significant. The inhibitory effects of the following compounds on cell proliferation were expressed as IC50 or inhibition rates.
Compound,"IC50 (MDA-MB-231; MDA-MB-231, MTT, 72 hours) [nM]","IC50 (MDA-MB-435; MDA-MB-435, MTT, 72 hours) [nM]","IC50 (MDA-MB-231; MDA-MB-231, 72 h) [nM]","IC50 (MDA-MB-435; MDA-MB-435, 72 h) [nM]"
Cc1ccc(NC(=O)c2ccc(CN3CCN(C)CC3)cc2)cc1C#Cc1nn(C(C)C)c2ncnc(N)c12 [Compound 1],100 to 500,100 to 500,–,–
CCn1nc(C#Cc2cc(C(=O)Nc3ccc(CN4CCN(C)CC4)c(C(F)(F)F)c3)ccc2C)c2c(N)ncnc21 [Compound 2],< 100,< 100,–,–
CC(=O)Nc1ncnc2c1c(C#Cc1cc(C(=O)Nc3ccc(CN4CCN(C)CC4)c(C(F)(F)F)c3)ccc1C)nn2C(C)C [Compound 15],100 to 500,100 to 500,–,–
Cc1ccc(C(=O)Nc2ccc(CN3CCN(C)CC3)c(C(F)(F)F)c2)cc1C#Cc1nn([C@@H]2CCOC2)c2ncnc(N)c12 [Compound 20],–,–,< 100,< 100
Cc1ccc(C(=O)Nc2ccc(CN3CCN(C)CC3)c(C(F)(F)F)c2)cc1C#Cc1nn([C@H]2CCOC2)c2ncnc(N)c12 [Compound 21],–,–,< 100,< 100
Cc1ccc(NC(=O)c2ccc(C)c(C#Cc3nn(C(C)C)c4ncnc(N)c34)c2)cc1 [Compound 22],100 to 500,> 1000,–,–
CCn1nc(C#Cc2cc(C(=O)Nc3ccc(CN4CCN(C)CC4)c(C(F)(F)F)c3)ccc2F)c2c(N)ncnc21 [Compound 23],> 1000,100 to 500,–,–
CCn1nc(C#Cc2cc(C(=O)Nc3ccc(CN4CCN(C)CC4)c(C(F)(F)F)c3)ccc2C(C)C)c2c(N)ncnc21 [Compound 27],> 1000,> 1000,–,–
Cc1ccc(NC(=O)c2ccc(CN3CCN(C)CC3)c(C(F)(F)F)c2)cc1C#Cc1nn(C)c2ncnc(N)c12 [Compound 28],< 100,< 100,–,–
Cc1ccc(C(=O)Nc2cccc(C(F)(F)F)c2)cc1C#Cc1nn(C2CCN(C)CC2)c2ncnc(N)c12 [Compound 32],< 100,100 to 500,–,–
CN1CCC(n2nc(C#Cc3cccc(NC(=O)c4cccc(C(F)(F)F)c4)c3)c3c(N)ncnc32)CC1 [Compound 33],500 to 1000,100 to 500,–,–
CN1CCC(n2nc(C#Cc3cc(NC(=O)c4cccc(C(F)(F)F)c4)ccc3Cl)c3c(N)ncnc32)CC1 [Compound 34],500 to 1000,100 to 500,–,–
Cc1ccc(NC(=O)Nc2cccc(C(F)(F)F)c2)cc1C#Cc1nn(C2CCN(C)CC2)c2ncnc(N)c12 [Compound 35],500 to 1000,< 100,–,–
CN1CCC(n2nc(C#Cc3cc(NC(=O)Nc4cccc(C(F)(F)F)c4)ccc3Cl)c3c(N)ncnc32)CC1 [Compound 36],500 to 1000,100 to 500,–,–
CN1CCC(n2nc(C#Cc3cccc(C(=O)Nc4cccc(C(F)(F)F)c4)c3)c3c(N)ncnc32)CC1 [Compound 37],> 1000,100 to 500,–,–
CN1CCC(n2nc(C#Cc3cc(C(=O)Nc4cccc(C(F)(F)F)c4)ccc3Cl)c3c(N)ncnc32)CC1 [Compound 38],500 to 1000,100 to 500,–,–
CN1CCC(n2nc(C#Cc3cccc(NC(=O)Nc4cccc(C(F)(F)F)c4)c3)c3c(N)ncnc32)CC1 [Compound 39],> 1000,500 to 1000,–,–
Cc1ccc(NC(=O)c2cccc(C(C)(C)C)c2)cc1C#Cc1nn(C2CCN(C)CC2)c2ncnc(N)c12 [Compound 40],< 100,< 100,–,–
Cc1ccc(NC(=O)c2ccc(C(F)(F)F)cc2)cc1C#Cc1nn(C2CCN(C)CC2)c2ncnc(N)c12 [Compound 41],500 to 1000,> 1000,–,–
Cc1ccc(NC(=O)c2ccc(C)c(C(F)(F)F)c2)cc1C#Cc1nn(C2CCN(C)CC2)c2ncnc(N)c12 [Compound 42],< 100,< 100,–,–
COc1ccc(C(=O)Nc2ccc(C)c(C#Cc3nn(C4CCN(C)CC4)c4ncnc(N)c34)c2)cc1 [Compound 43],> 1000,> 1000,–,–
COc1cccc(C(=O)Nc2ccc(C)c(C#Cc3nn(C4CCN(C)CC4)c4ncnc(N)c34)c2)c1 [Compound 44],100 to 500,100 to 500,–,–
Cc1ccc(NC(=O)c2cccc(F)c2)cc1C#Cc1nn(C2CCN(C)CC2)c2ncnc(N)c12 [Compound 45],500 to 1000,> 1000,–,–
Cc1ccc(NC(=O)c2ccc(F)c(Cl)c2)cc1C#Cc1nn(C2CCN(C)CC2)c2ncnc(N)c12 [Compound 46],500 to 1000,> 1000,–,–
Cc1ccc(NC(=O)c2ccc(F)c(C(F)(F)F)c2)cc1C#Cc1nn(C2CCN(C)CC2)c2ncnc(N)c12 [Compound 47],500 to 1000,500 to 1000,–,–

Compound,"IC50 (MDA-MB-231; MDA-MB-231, MTT, 72 hours) [nM]","IC50 (MDA-MB-435; MDA-MB-435, MTT, 72 hours) [nM]","IC50 (MDA-MB-231; MDA-MB-231, 72 h) [nM]","IC50 (MDA-MB-435; MDA-MB-435, 72 h) [nM]"
Cc1ccc(NC(=O)c2cccc(C(F)(F)F)c2F)cc1C#Cc1nn(C2CCN(C)CC2)c2ncnc(N)c12 [Compound 48],100 to 500,100 to 500,–,–
Cc1ccc(NC(=O)c2cccc(Cl)c2)cc1C#Cc1nn(C2CCN(C)CC2)c2ncnc(N)c12 [Compound 49],< 100,500 to 1000,–,–
Cc1ccc(NC(=O)c2cc(C(F)(F)F)ccc2F)cc1C#Cc1nn(C2CCN(C)CC2)c2ncnc(N)c12 [Compound 50],100 to 500,100 to 500,–,–
Cc1ccc(NC(=O)c2cc(F)cc(C(F)(F)F)c2)cc1C#Cc1nn(C2CCN(C)CC2)c2ncnc(N)c12 [Compound 51],500 to 1000,> 1000,–,–
Cc1ccc(NC(=O)c2cccc(OC(F)(F)F)c2)cc1C#Cc1nn(C2CCN(C)CC2)c2ncnc(N)c12 [Compound 52],< 100,< 100,–,–
Cc1ccc(NC(=O)c2ccc(Cl)cc2)cc1C#Cc1nn(C2CCN(C)CC2)c2ncnc(N)c12 [Compound 53],< 100,100 to 500,–,–
Cc1ccc(NC(=O)c2cc(C(F)(F)F)cc(C(F)(F)F)c2)cc1C#Cc1nn(C2CCN(C)CC2)c2ncnc(N)c12 [Compound 54],< 100,< 100,–,–
Cc1cccc(C(=O)Nc2ccc(C)c(C#Cc3nn(C4CCN(C)CC4)c4ncnc(N)c34)c2)c1 [Compound 55],100 to 500,100 to 500,–,–
Cc1ccc(NC(=O)c2cc(C(F)(F)F)cc(Cl)c2F)cc1C#Cc1nn(C2CCN(C)CC2)c2ncnc(N)c12 [Compound 56],> 1000,> 1000,–,–
Cc1ccc(NC(=O)c2cccc(C(F)(F)F)n2)cc1C#Cc1nn(C2CCN(C)CC2)c2ncnc(N)c12 [Compound 57],500 to 1000,> 1000,–,–
Cc1ccc(NC(=O)c2cncc(C(F)(F)F)c2)cc1C#Cc1nn(C2CCN(C)CC2)c2ncnc(N)c12 [Compound 58],100 to 500,< 100,–,–
Cc1ccc(NC(=O)c2ccnc(C(F)(F)F)c2)cc1C#Cc1nn(C2CCN(C)CC2)c2ncnc(N)c12 [Compound 59],100 to 500,100 to 500,–,–
Cc1ccc(NC(=O)c2ccc(Cl)c(Cl)c2)cc1C#Cc1nn(C2CCN(C)CC2)c2ncnc(N)c12 [Compound 60],100 to 500,500 to 1000,–,–
Cc1ccc(C(=O)Nc2cc(C(C)(C)C)nn2C)cc1C#Cc1nn(C2CCN(C)CC2)c2ncnc(N)c12 [Compound 61],100 to 500,100 to 500,–,–
Cc1ccc(C(=O)Nc2cc(C(C)(C)C)on2)cc1C#Cc1nn(C2CCN(C)CC2)c2ncnc(N)c12 [Compound 62],< 100,< 100,–,–
Cc1ccc(NC(=O)c2cc(C(C)(C)C)nn2C)cc1C#Cc1nn(C2CCN(C)CC2)c2ncnc(N)c12 [Compound 63],100 to 500,< 100,–,–
Cc1ccc(NC(=O)c2cc(C(C)(C)C)on2)cc1C#Cc1nn(C2CCN(C)CC2)c2ncnc(N)c12 [Compound 64],100 to 500,< 100,–,–
Cc1ccc(NC(=O)c2nc(C(C)(C)C)cs2)cc1C#Cc1nn(C2CCN(C)CC2)c2ncnc(N)c12 [Compound 65],< 100,< 100,–,–
Cc1ccc(NC(=O)c2cc(Cl)cc(C(F)(F)F)c2)cc1C#Cc1nn(C2CCN(C)CC2)c2ncnc(N)c12 [Compound 66],< 100,< 100,–,–
Cc1ccc(NC(=O)c2ccc(Cl)c(C(F)(F)F)c2)cc1C#Cc1nn(C2CCN(C)CC2)c2ncnc(N)c12 [Compound 67],< 100,< 100,–,–
Cc1ccc(NC(=O)c2cc(Cl)cc(Cl)c2)cc1C#Cc1nn(C2CCN(C)CC2)c2ncnc(N)c12 [Compound 68],100 to 500,100 to 500,–,–
Cc1ccc(NC(=O)c2ccc(Cl)c(C(F)(F)F)c2)cc1C#Cc1nn(CC2CCN(C)C2)c2ncnc(N)c12 (centres unmarked) [Compound 69],< 100,> 1000,–,–
Cc1ccc(NC(=O)c2ccc(Cl)c(C(F)(F)F)c2)cc1C#Cc1nn(C2CCN(C(=O)[C@H](C)O)CC2)c2ncnc(N)c12 [Compound 70],< 100,500 to 1000,–,–
Cc1ccc(NC(=O)c2ccc(Cl)c(C(F)(F)F)c2)cc1C#Cc1nn(C2CCN(C(=O)[C@@H](C)O)CC2)c2ncnc(N)c12 [Compound 71],< 100,< 100,–,–
